Assays:
CCKB receptor = target: T1, CCKB receptor (Mus musculus, UniProt P56481); experiment: CCKB receptor radioligand binding assay in mouse cortical membranes ([125I]-CCK8S); conditions: [125I]-CCK8S 200 pM, 150 min at 21±3°; for Ki: read-out: CCKB pKi (converted)
T1 construct: The cortex was dissected, weighed and homogenised in 40ml ice-cold buffer; tissue Charles River (supplier of the CD1 mice); host or cells: cerebral cortex membranes of male CD1 mice
T1 sequence (P56481 1-453): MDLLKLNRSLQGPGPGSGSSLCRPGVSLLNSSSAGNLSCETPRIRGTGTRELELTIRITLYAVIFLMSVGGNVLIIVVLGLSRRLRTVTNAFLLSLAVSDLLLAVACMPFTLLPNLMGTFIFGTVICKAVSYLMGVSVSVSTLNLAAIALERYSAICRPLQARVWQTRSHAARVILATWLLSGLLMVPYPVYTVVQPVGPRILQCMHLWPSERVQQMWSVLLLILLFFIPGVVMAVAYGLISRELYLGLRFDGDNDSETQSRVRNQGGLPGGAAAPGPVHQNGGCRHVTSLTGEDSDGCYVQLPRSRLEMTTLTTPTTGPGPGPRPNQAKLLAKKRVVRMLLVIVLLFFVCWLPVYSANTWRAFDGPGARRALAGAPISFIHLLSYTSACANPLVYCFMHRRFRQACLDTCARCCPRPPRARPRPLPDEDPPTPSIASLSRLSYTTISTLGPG
Description: The compounds of the examples were tested for binding at the CCKB receptor in mouse cortical membranes by means of a radioligand binding assay. The procedure was as follows:
The whole brains from male mice (CD1 22-25 g; Charles River) were removed and placed in ice-cold buffer (pH7.2 @ 21±3°) of the following composition (mM); 10 HEPES, 130 NaCl, 4.7 KCl, 5 MgCl2, 1 EDTA and containing 0.25g.^-1 bacitracin. The cortex was dissected, weighed and homogenised in 40ml ice-cold buffer using a Teflon-in-glass homogeniser. The homogenate was centrifuged at 39,800g for 20 min at 4°, the supernatant discarded and the pellet resuspended by homogenisation in fresh buffer. The homogenate was recentrifuged (39,800 g; 20 min @ 4°) and the final pellet was resuspended in HEPES buffer to give a tissue concentration of 2 mg.ml^-1 (original wet weight).
The membranes ([…]) were incubated for 150 min at 21±3° in a final volume of 0.5 ml with HEPES buffer containing [^125 I]-CCK8S (0.05 ml; 200 pM NEN 2200 Ci.mmol^-1) and competing compound. Total and non-specific binding of [^125 I]-CCK8S were defined using 0.05 ml of buffer and 0.05 ml of […] L-365,260, respectively. The assay was terminated by rapid filtration through pre-soaked Whatman GF/B filters using a Brandell Cell harvester. The filters were washed (3×3 ml) with ice-cold 50 mM Tris-HCl (pH7.4 @ 4° C.) and bound radioactivity determined by counting (1 min.) in a gamma-counter.

gastrin = target: T2, gastrin (Rattus norvegicus, UniProt P30553); experiment: gastrin antagonist activity in an immature rat stomach assay (pentagastrin-stimulated acid secretion); conditions: cumulative pentagastrin dose-response curves after 60 min with drug; for Kb: read-out: Gastrin pKB (converted)
T2 construct: The stomach was lowered into a jacketed organ bath containing 40 ml of buffered solution; from tissue; host or cells: isolated perfused whole stomach of immature rats (ca. 21 days old)
T2 sequence (P30553 1-452): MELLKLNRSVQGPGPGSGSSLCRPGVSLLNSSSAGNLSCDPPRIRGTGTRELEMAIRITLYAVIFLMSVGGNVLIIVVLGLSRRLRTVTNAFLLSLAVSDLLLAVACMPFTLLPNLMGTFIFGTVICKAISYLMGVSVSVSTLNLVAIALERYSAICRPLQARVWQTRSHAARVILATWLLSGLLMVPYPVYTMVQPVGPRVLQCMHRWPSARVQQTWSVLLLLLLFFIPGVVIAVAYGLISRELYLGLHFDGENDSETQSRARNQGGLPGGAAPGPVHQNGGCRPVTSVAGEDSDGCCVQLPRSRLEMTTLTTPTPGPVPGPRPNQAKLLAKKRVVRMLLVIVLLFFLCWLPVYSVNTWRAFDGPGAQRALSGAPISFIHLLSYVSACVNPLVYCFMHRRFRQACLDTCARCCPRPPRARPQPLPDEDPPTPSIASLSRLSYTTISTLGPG
Description: The compounds of the examples were also tested for gastrin antagonist activity in an immature rat stomach assay. The procedure was as follows:
The oesophagus of immature rats (33-50 g, ca. 21 days old) was ligated at the level of the cardiac sphincter and the duodenal sphincter was cannulated. The stomach was excised and flushed with ca. 1 ml of unbuffered physiological saline solution. The fundus was punctured and cannulated. A further 4-5 ml of unbuffered solution was flushed through the stomach to ensure the preparation was not leaking. The stomach was lowered into a jacketed organ bath containing 40 ml of buffered solution containing 3×10^-8 M 5-methylfurmethide, maintained at 37° and gassed vigorously with 95% O2 /5% CO2. The stomach was continuously perfused at a rate of 1 ml min^-1 with unbuffered solution gassed with 100% O2 with the perfusate passing over an internally referenced pH-electrode fixed 12 cm above the stomach.
After 120 min of stabilisation the drugs were added directly to the serosal solution in the organ bath and after a further 60 min cumulative pentagastrin dose-response curves were started. Changes in acid secretion were monitored and the curves analysed according to Black et.al., Br. J. Pharmacol., 1985, 86, 581.

CCKA = target: T3, CCKA (Cavia porcellus, UniProt Q63931); experiment: CCKA radioligand binding assay in guinea-pig pancreas membranes ([125I]-CCK8(S)); conditions: PD134,308 present, 150 minutes at 21±3°; for Ki: read-out: CCKA pKi (converted)
T3 construct: The pancreatata were homogenised in 40 ml ice-cold HEPES buffer using a polytron; from tissue; host or cells: pancreas membranes of male Dunkin Hartley guinea-pigs
T3 sequence (Q63931 1-430): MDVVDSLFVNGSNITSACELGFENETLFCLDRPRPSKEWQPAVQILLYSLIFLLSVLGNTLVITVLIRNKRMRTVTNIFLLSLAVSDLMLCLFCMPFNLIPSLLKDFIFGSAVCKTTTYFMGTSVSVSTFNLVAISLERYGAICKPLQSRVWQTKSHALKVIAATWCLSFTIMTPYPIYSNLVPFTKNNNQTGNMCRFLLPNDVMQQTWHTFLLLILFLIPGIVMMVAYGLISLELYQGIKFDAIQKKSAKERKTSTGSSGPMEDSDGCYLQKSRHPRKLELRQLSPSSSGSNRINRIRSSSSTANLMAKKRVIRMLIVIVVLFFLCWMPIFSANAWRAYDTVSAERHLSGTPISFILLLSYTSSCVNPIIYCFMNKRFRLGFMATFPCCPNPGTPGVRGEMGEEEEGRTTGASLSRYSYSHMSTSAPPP
Description: The compounds of the examples were also tested in a CCKA as follows:
The pancreatata were removed from male guinea-pigs (200-300 g; Dunkin Hartley) and placed in ice-cold HEPES buffer (pH 7.2 @ 21 ±3). The pancreatata were homogenised in 40 ml ice-cold HEPES buffer using a polytron (Brinkmann, PT10, setting 10) 4×1 second. The homogenate was centrifuged at 39,800 g for 15 min at 4°. The supernatant was discarded and the pellet re-suspended using a Teflon-in-glass homogeniser in 20 volumes of fresh buffer and re-centrifuged as above.
The final pellet was re-suspended using a Teflon-in-glass homogeniser to a tissue concentration of 1 mg.ml^-1 (original wet weight), and filtered through 500 μm pore-size Nytex mesh.
The membranes (400 μl; containing 0.375 μM PD134,308) are incubated for 150 minutes at 21±3° in a final volume of 0.5 ml with HEPES buffer containing [^125 I]-CCK8 (S) (50 μl; […]) and competing compound. Total and non-specific binding of [^125 I]-CCK8 (S) are defined using 50 μl of buffer and 50 μl of 100 nM L-364,718 respectively. The assay is terminated by rapid filtration through pre-soaked Whatman GF/B filters using a Brandell Cell Harvester. The filters were washed (3×3 ml) with ice-cold 50 mM Tris HCl (pH 7.4 at 4°) and bound radioactivity is determined by counting (1 min) in a gamma counter.

Compound	Ki (CCKB receptor)	CCKB pKi (CCKB receptor)	CCKA pKi (CCKA)	other results
CN(CC12CC3CC(CC(C3)C1)C2)C(=O)c1cc2ccccc2cc1C(=O)N1CCC[C@@H]1C(=O)O [Example 9, 2-(2R-carboxypyrrolidino-carbonyl)-3-(1-adamantanemethyl(N-methyl)aminocarbonyl)-naphthalene]	251 nM	–	–	Kb (gastrin): 501 nM
O=C(O)c1cc(NC(=O)[C@@H](Cc2ccccc2)NC(=O)c2cc3ccccc3cc2C(=O)NCC23CC4CC(CC(C4)C2)C3)cc(C(=O)O)c1 [Example 23, 2-(1R-(3,5-dicarboxyphenylaminocarbonyl) -2-phenylethylaminocarbonyl)-3-(1-adamantanemethylaminocarbonyl)-naphthalene]	–	–	–	Kb (gastrin): 39.8 nM
5-(1S-(3,5-methoxyaminocarbonylphenylaminocarbonyl)-2-phenylethylaminocarbonyl)-6-(1-adamantanemethylaminocarbonyl)-indole and regioisomer with substituents at positions 5 and 6 reversed [Example 38]	–	7.5	–	Gastrin pKB (gastrin): 7.1
O=C(NS(=O)(=O)c1cccc(NC(=O)[C@H](Cc2ccccc2)NC(=O)c2cc3[nH]cnc3cc2C(=O)NCC23CC4CC(CC(C4)C2)C3)c1)c1ccccc1 [Example 139, 5-(1S-(3-benzoylaminosulphonylphenylaminocarbonyl)-2-phenylethylaminocarbonyl)-6-(1-adamantanemethylaminocarbonyl)-benzimidazole]	15.8 nM	–	–	Kb (gastrin): 79.4 nM
O=C(NCC12CC3CC(CC(C3)C1)C2)c1cc2[nH]ccc2cc1C(=O)N[C@@H](Cc1ccccc1)C(=O)Nc1cc(NC(=O)C(F)(F)F)cc(NC(=O)C(F)(F)F)c1 [Example 94, 5-(1S-(3,5-di-trifluoromethylcarbonylaminophenylamino-carbonyl)-2-phenylethylaminocarbonyl)-6-(1-adamantanemethylaminocarbonyl)-indole]	–	6.7	5.0	–
O=C(O)c1cc(NC(=O)[C@H](Cc2ccccc2)NC(=O)c2cc3[nH]c4ccccc4c3cc2C(=O)NCC23CC4CC(CC(C4)C2)C3)cc(C(=O)O)c1 [Example 52, 2-(1S-(3,5-dicarboxyphenylaminocarbonyl)-2-phenylethylaminocarbonyl)-3-(1-adamantanemethylaminocarbonyl)-carbazole]	63.1 nM	–	–	Ki (CCKA): 1260 nM
O=C(NCC12CC3CC(CC(C3)C1)C2)c1cc2nc[nH]c2cc1C(=O)N[C@@H](Cc1ccccc1)C(=O)Nc1cc(CO)cc(CO)c1 [Example 119, 5-(1S-(3,5-dihydroxymethylphenylaminocarbonyl)-2-phenylethylaminocarbonyl)-6-(1-adamantanemethylaminocarbonyl)-benzimidazole]	–	6.2	5.6	–
O=C(NCC12CC3CC(CC(C3)C1)C2)c1cc2[nH]ccc2cc1C(=O)N[C@@H](Cc1ccccc1)C(=O)Nc1cccc(S(=O)(=O)NC(=O)C(F)(F)F)c1 [Example 99, 5-(1S-(3-trifluoroacetylaminosulphonylphenylaminocarbonyl)-2-phenylethylaminocarbonyl)-6-(1-adamantanemethylaminocarbonyl)-indole]	–	8.4	5.4	–
O=C(O)c1cc(NC(=O)[C@H](Cc2ccccc2)NC(=O)c2cc3[nH]cnc3cc2C(=O)NCc2ccc3ccccc3c2)cc(C(=O)O)c1 [Example 130, 5-(1S-(3,5-dicarboxyphenylaminocarbonyl)-2-phenylethylaminocarbonyl)-6-(2-naphthalenenemethylaminocarbonyl)-benzimidazole]	25.1 nM	–	–	Ki (CCKA): 3980 nM
O=C(NCC12CC3CC(CC(C3)C1)C2)c1cc2nc[nH]c2cc1C(=O)N[C@@H](Cc1ccccc1F)C(=O)Nc1cc(-c2nn[nH]n2)cc(-c2nn[nH]n2)c1 [Example 84, 5-(1S-(3,5-ditetrazolylphenylaminocarbonyl)-2-(2-fluorophenyl)ethylaminocarbonyl)-6-(1-adamantanemethylaminocarbonyl)-benzimidazole]	2.51 nM	–	–	Ki (CCKA): 631 nM
O=C(NCC12CC3CC(CC(C3)C1)C2)c1cc2[nH]ccc2cc1C(=O)N[C@@H](Cc1ccccc1)C(=O)Nc1cccc(NS(=O)(=O)C(F)(F)F)c1 [Example 102, 5-(1S-(3-trifluoromethylsulphonylaminophenylaminocarbonyl)-2-phenylethylaminocarbonyl)-6-(1-adamantanemethylaminocarbonyl)-indole]	–	7.4	5.9	–
